According to patent US10597388B2, “Pyridazinone herbicides” (FMC CORPORATION, priority 2014, dated 2020):

Experiments:
Assay in all cases: Test E greenhouse herbicide test, pre- and postemergence
Format in all cases: in vivo
Details in all cases: Postemergence
[1] = test system: arrowleaf sida (Sida rhombifolia)
Source text: (§1) Seeds of plant species selected from corn (Zea mays), soybean (Glycine max), velvetleaf (Abutilon theophrasti), lambsquarters (Chenopodium album), wild poinsettia (Euphorbia heterophylla), pigweed, palmer (palmer pigweed, Amaranthus palmeri), waterhemp (common waterhemp, Amaranthus rudis), surinam grass (Brachiaria decumbens), crabgrass, large (large crabgrass, Digitaria sanguinalis), crabgrass, Brazilian (Brazilian crabgrass, Digitaria horizontalis), panicum, fall (fall panicum, Panicum dichotomiflorum), foxtail, giant (giant foxtail, Setaria faberii), foxtail, green (green foxtail, Setaria viridis), goosegrass (Eleusine indica), johnsongrass (Sorghum halepense), ragweed (common ragweed, Ambrosia elatior), barnyardgrass (Echinochloa crus-galli), sandbur (southem sandbur, Cenchrus echinatus), arrowleaf sida (Sida rhombifolia), Italian ryegrass (Lolium multiflorum), dayflower (Virginia (VA) dayflower, Commelina virginica), field bindweed (Convolvulus arvensis), momingglory (Ipomoea coccinea), nightshade (eastern black nightshade, Solanum ptycanthum), kochia (Kochia scoparia), nutsedge, yellow (yellow nutsedge, Cyperus esculentus), horseweed (Conyza canadensis), and beggarticks (hairy beggarticks, Bidens pilosa), were planted into a silt loam soil and treated preemergence with test chemicals formulated in a non-phytotoxic solvent mixture which included a surfactant.
(§2) At the same time, plants from these crop and weed species and also waterhemp_RES1, (ALS & Triazine resistant common waterhemp, Amaranthus rudis), and waterhemp_RES2, (ALS & HPPD resistant common waterhemp, Amaranthus rudis) were planted in pots containing Redi-Earth® planting medium (Scotts Company, 14111 Scottslawn Road, Marysville, Ohio 43041) comprising spaghnum peat moss, vermiculite, wetting agent and starter nutrients were treated with postemergence applications of test chemicals formulated in the same manner. Plants ranged in height from 2 to 18 cm for postemergence treatments (1- to 4-leaf stage). Treated plants and controls were maintained in a greenhouse for 14 to 21 d, after which time all species were compared to controls and visually evaluated. Plant response ratings, summarized in Table E, are based on a scale of 0 to 100 where 0 is no effect and 100 is complete control. A dash (-) response means no test result.

corn (Zea mays) = test system: corn (Zea mays)
Source text: as §1, §2

[2] = test system: crabgrass, Brazilian (Brazilian crabgrass, Digitaria horizontalis)
Source text: as §1, §2

[3] = test system: dayflower (Virginia (VA) dayflower, Commelina virginica)
Source text: as §1, §2

[4] = test system: field bindweed (Convolvulus arvensis)
Source text: as §1, §2

[5] = test system: horseweed (Conyza canadensis)
Source text: as §1, §2

[6] = test system: pigweed, palmer (palmer pigweed, Amaranthus palmeri)
Source text: as §1, §2

[7] = test system: ragweed (common ragweed, Ambrosia elatior)
Source text: as §1, §2

[8] = test system: waterhemp (common waterhemp, Amaranthus rudis)
Source text: as §1, §2

[9] = 62 g ai/ha, scale 0 to 100 (0 no effect, 100 complete control)
[10] = 125 g ai/ha, scale 0 to 100 (0 no effect, 100 complete control)
[11] = 250 g ai/ha, scale 0 to 100 (0 no effect, 100 complete control)
[12] = 31 g ai/ha, visual, scale 0 no effect to 100 complete control
[13] = 16 g ai/ha, visual, scale 0 no effect to 100 complete control

Structure (SMILES) | Plant response rating, Arrowleaf Sida [1, 9] | Plant response rating, Arrowleaf Sida [1, 10] | Plant response rating, Arrowleaf Sida [1, 12] | Plant response rating, Corn (corn (Zea mays); [9]) | Plant response rating, Corn (corn (Zea mays); [10]) | Plant response rating, Corn (corn (Zea mays); [12]) | Plant response rating, Crabgrass, Brazil [2, 9] | Plant response rating, Crabgrass, Brazil [2, 10] | Plant response rating, Crabgrass, Brazil [2, 12] | Plant response rating, Dayflower, VA [3, 9] | Plant response rating, Dayflower, VA [3, 10] | Plant response rating, Dayflower, VA [3, 12] | Plant response rating, Field Bindweed [4, 9] | Plant response rating, Field Bindweed [4, 10] | Plant response rating, Field Bindweed [4, 12] | Plant response rating, Horseweed [5, 9] | Plant response rating, Horseweed [5, 10] | Plant response rating, Horseweed [5, 12] | Plant response rating, Pigweed, Palmer [6, 9] | Plant response rating, Pigweed, Palmer [6, 10] | further results
COc1nn(C)c(=O)c(-c2c(C)sc3ccc(Cl)cc23)c1O [Compound 100] | 60 | 70 | 50 | 5 | 0 | 0 | 50 | 40 | 25 | 0 | 0 | 0 | 80 | 90 | 75 | 70 | 75 | 35 | 30 | 40 | Plant response rating, Arrowleaf Sida [1, 11]: 75; Plant response rating, Corn (corn (Zea mays); [11]): 0; Plant response rating, Crabgrass, Brazil [2, 11]: 50; Plant response rating, Dayflower, VA [3, 11]: 0; Plant response rating, Field Bindweed [4, 11]: 95; Plant response rating, Horseweed [5, 11]: 80; Plant response rating, Pigweed, Palmer [6, 11]: 50; Plant response rating, Pigweed, Palmer [6, 12]: 20; Plant response rating, Ragweed [7, 9]: 85; Plant response rating, Ragweed [7, 10]: 90; Plant response rating, Ragweed [7, 11]: 90; Plant response rating, Ragweed [7, 12]: 75; Plant response rating, Waterhemp [8, 11]: 90; Plant response rating, Waterhemp [8, 12]: 80
CCC(=O)Oc1c(C)nn(C)c(=O)c1-c1c(C)sc2ccc(C)cc12 [Compound 42] | 60 | 70 | 20 | 15 | 15 | 10 | 35 | 40 | 20 | 50 | 60 | 30 | 85 | 90 | 90 | 75 | 75 | 75 | 75 | 60 | Plant response rating, Arrowleaf Sida [1, 11]: 80; Plant response rating, Corn (corn (Zea mays); [11]): 20; Plant response rating, Crabgrass, Brazil [2, 11]: 50; Plant response rating, Dayflower, VA [3, 11]: 70; Plant response rating, Field Bindweed [4, 11]: 90; Plant response rating, Horseweed [5, 11]: 85; Plant response rating, Pigweed, Palmer [6, 11]: 95; Plant response rating, Pigweed, Palmer [6, 12]: 70; Plant response rating, Ragweed [7, 9]: 85; Plant response rating, Ragweed [7, 10]: 95; Plant response rating, Ragweed [7, 11]: 90; Plant response rating, Ragweed [7, 12]: 90; Plant response rating, Waterhemp [8, 9]: 80; Plant response rating, Waterhemp [8, 10]: 100; Plant response rating, Waterhemp [8, 11]: 90; Plant response rating, Waterhemp [8, 12]: 75
CSCC(=O)Oc1c(C)nn(C)c(=O)c1-c1cccc2ccccc12 [Compound 171] | 80 | 90 | 80 | 0 | 0 | 0 | 50 | 50 | 40 | 50 | 70 | 40 | 85 | 100 | 70 | 60 | 70 | 50 | 50 | 60 | Plant response rating, Arrowleaf Sida [1, 11]: 95; Plant response rating, Corn (corn (Zea mays); [11]): 0; Plant response rating, Crabgrass, Brazil [2, 11]: 60; Plant response rating, Dayflower, VA [3, 11]: 90; Plant response rating, Field Bindweed [4, 11]: 100; Plant response rating, Horseweed [5, 11]: 60; Plant response rating, Pigweed, Palmer [6, 11]: 70; Plant response rating, Pigweed, Palmer [6, 12]: 50; Plant response rating, Ragweed [7, 9]: 75; Plant response rating, Ragweed [7, 10]: 90; Plant response rating, Ragweed [7, 11]: 98; Plant response rating, Ragweed [7, 12]: 60; Plant response rating, Waterhemp [8, 10]: 85; Plant response rating, Waterhemp [8, 11]: 90; Plant response rating, Waterhemp [8, 12]: 80
CC(=O)Oc1c(C)nn(C)c(=O)c1-c1ccc(F)c2ccccc12 [Compound 90] | 90 | 90 | 80 | 5 | 0 | 0 | 50 | 70 | 55 | 80 | 90 | 60 | 90 | 100 | 80 | 75 | 70 | 70 | 50 | 60 | Plant response rating, Arrowleaf Sida [1, 13]: 70; Plant response rating, Corn (corn (Zea mays); [13]): 5; Plant response rating, Crabgrass, Brazil [2, 13]: 50; Plant response rating, Dayflower, VA [3, 13]: 40; Plant response rating, Field Bindweed [4, 13]: 60; Plant response rating, Horseweed [5, 13]: 50; Plant response rating, Pigweed, Palmer [6, 13]: 40; Plant response rating, Pigweed, Palmer [6, 12]: 65; Plant response rating, Ragweed [7, 9]: 80; Plant response rating, Ragweed [7, 10]: 90; Plant response rating, Ragweed [7, 13]: 50; Plant response rating, Ragweed [7, 12]: 75; Plant response rating, Waterhemp [8, 10]: 90; Plant response rating, Waterhemp [8, 13]: 50; Plant response rating, Waterhemp [8, 12]: 70
